Laboratory results taken from PubChem BioAssay (NCI).
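How tested: cells in 96-well plates exposed to compound for 48 hours at five concentrations. The concentration for full growth arrest is given as TGI.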

Experiments:
Assay in all cases: growth of human tumour cells (NCI), 48 h
COLO 205 colon = test system: COLO 205 colon
EKVX NSCLC = test system: EKVX NSCLC
HCT-116 colon = test system: HCT-116 colon
HOP-62 NSCLC = test system: HOP-62 NSCLC
HT29 colon = test system: HT29 colon
IGROV1 ovarian = test system: IGROV1 ovarian
KM12 colon = test system: KM12 colon
LOX IMVI melanoma = test system: LOX IMVI melanoma
NCI-H23 lung = test system: NCI-H23 lung
PC-3 prostate = test system: PC-3 prostate
SF-539 CNS = test system: SF-539 CNS
SK-MEL-5 melanoma = test system: SK-MEL-5 melanoma
SNB-19 CNS = test system: SNB-19 CNS
KM20L2 colon = test system: KM20L2 colon

Measured: TGI

CNC(=O)Nc1cc2c3c(c1)CCCN3CCC2
not listed: KM20L2 colon
> 10 µM: all other assays above

CC(C)(C)CN1[C@@H]2CCCC[C@H]2N(CC(C)(C)C)P1(=O)Cc1ccccc1
29.6 µM: LOX IMVI melanoma
26.2 µM: NCI-H23 lung
22.6 µM: HCT-116 colon
21.7 µM: HT29 colon
19.4 µM: PC-3 prostate
24.8 µM: SK-MEL-5 melanoma
34.3 µM: KM12 colon
31.6 µM: SF-539 CNS
27.4 µM: EKVX NSCLC
23.3 µM: IGROV1 ovarian
31.3 µM: HOP-62 NSCLC
22.2 µM: COLO 205 colon
28.6 µM: SNB-19 CNS

CC1CCCOc2ccc(cc2)C=Nc2ccc(cc2)CCc2ccc(cc2)N=Cc2ccc(cc2)OCCC1 (centres undefined)
not listed: KM20L2 colon
> 100 µM: all other assays above

CN(C)c1ccc(N=Nc2cccc3ccoc23)cc1
not listed: KM20L2 colon
> 100 µM: all other assays above

CC12CN(CC[N+](C)(C)C)CC1(C)C1CCC2O1 (centres undefined)
not listed: KM20L2 colon
> 100 µM: all other assays above

CC1(C)C(O)c2ccccc2OC1N1CCN(C2Oc3ccccc3C(O)C2(C)C)CC1 (centres undefined)
not listed: KM20L2 colon
> 100 µM: all other assays above

Cc1nc(Nc2nnc(-c3cc([N+](=O)[O-])cc([N+](=O)[O-])c3C)o2)sc1C(=O)CC(=O)Cc1nc2ccc(Cl)cc2[nH]c1=O
not listed: PC-3 prostate
> 100 µM: all other assays above

C[C@]12CCC3c4ccc(OC(=O)c5ccccc5)cc4CC[C@H]3C1CC[C@@H]2OC(=O)C12OC1CCC2=O (some centres undefined)
37 µM: SNB-19 CNS
9.76 µM: NCI-H23 lung
7.49 µM: COLO 205 colon
8.13 µM: LOX IMVI melanoma
11.9 µM: HOP-62 NSCLC | KM20L2 colon
9.22 µM: IGROV1 ovarian
13.6 µM: KM12 colon
7.18 µM: HCT-116 colon
4.31 µM: SF-539 CNS
15 µM: EKVX NSCLC
7.55 µM: HT29 colon
9.49 µM: SK-MEL-5 melanoma
